Test results taken from US10087187B2, “Imidazopyridazine derivatives as PI3KB inhibitors” (Janssen Pharmaceutica NV, priority 2014, dated 2018).
Like-named read-outs stand apart in the source and are kept apart here.

Legend:
PIK3Cα_h = PIK3Cα_h (Homo sapiens (Human), UniProt P42336); assay: KINOMEscan enzyme binding assay, PIK3Cα; settings: DiscoveRx
Protocol: (§1) Enzyme Binding Assays (KINOMEscan®) Kinase enzyme binding affinities of compounds disclosed herein were determined using the KINOMEscan technology performed by DiscoveRx Corporation, San Diego, Calif., USA (www.kinomescan.com).

PIK3Cβ_h = PIK3Cβ_h (Homo sapiens (Human), UniProt P42338); assay: KINOMEscan enzyme binding assay, PIK3Cβ; settings: DiscoveRx
Protocol: as §1, with “(www.kinomescan.com). Table A reports the obtained Kd values (nM), with the Kd being the inhibitor binding constant: […]” for “(www.kinomescan.com).”

PIK3Cδ_h = PIK3Cδ_h (Homo sapiens (Human), UniProt O00329); assay: KINOMEscan enzyme binding assay, PIK3Cδ; settings: DiscoveRx
Protocol: as §1, with “(www.kinomescan.com). Table A reports the obtained Kd values (nM), with the Kd being the inhibitor binding constant: […]” for “(www.kinomescan.com).”

PIK3Cγ_h = PIK3Cγ_h (Homo sapiens (Human), UniProt P48736); assay: KINOMEscan enzyme binding assay, PIK3Cγ; settings: DiscoveRx
Protocol: as §1

MTOR_h = MTOR_h (Homo sapiens (Human), UniProt P42345); assay: KINOMEscan enzyme binding assay, MTOR; settings: DiscoveRx
Protocol: as §1

[1] = test system: Akt phosphorylated at Ser473 in PC-3 cells; assay: Cellular assay: phosphorylation of Akt (Ser473) in PC-3 cells, MSD ELISA; format: cell-based; settings: 60 min incubation with compound, read-out: IC50 pAkt_S473
Summary of the method: (§2)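 PC-3 cells cultured 24 h in DMEM/10% FCS were exposed to compound for 60 min at 37° C, with 0.3% DMSO. Lysates were analysed by MSD electrochemiluminescent sandwich ELISA using phospho-Ser473 or phospho-Thr308 capture and anti-total Akt detection antibodies. IC50 was derived by nonlinear sigmoidal fitting of % inhibition over five concentrations.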

[2] = test system: Akt phosphorylated at Thr308 in PC-3 cells; assay: Cellular assay: phosphorylation of Akt (Thr308) in PC-3 cells, MSD ELISA; format: cell-based; settings: 60 min incubation with compound, read-out: IC50 pAkt_Thr308
Summary of the method: as §2

Sequence of PIK3Cγ_h (P48736 whole entry): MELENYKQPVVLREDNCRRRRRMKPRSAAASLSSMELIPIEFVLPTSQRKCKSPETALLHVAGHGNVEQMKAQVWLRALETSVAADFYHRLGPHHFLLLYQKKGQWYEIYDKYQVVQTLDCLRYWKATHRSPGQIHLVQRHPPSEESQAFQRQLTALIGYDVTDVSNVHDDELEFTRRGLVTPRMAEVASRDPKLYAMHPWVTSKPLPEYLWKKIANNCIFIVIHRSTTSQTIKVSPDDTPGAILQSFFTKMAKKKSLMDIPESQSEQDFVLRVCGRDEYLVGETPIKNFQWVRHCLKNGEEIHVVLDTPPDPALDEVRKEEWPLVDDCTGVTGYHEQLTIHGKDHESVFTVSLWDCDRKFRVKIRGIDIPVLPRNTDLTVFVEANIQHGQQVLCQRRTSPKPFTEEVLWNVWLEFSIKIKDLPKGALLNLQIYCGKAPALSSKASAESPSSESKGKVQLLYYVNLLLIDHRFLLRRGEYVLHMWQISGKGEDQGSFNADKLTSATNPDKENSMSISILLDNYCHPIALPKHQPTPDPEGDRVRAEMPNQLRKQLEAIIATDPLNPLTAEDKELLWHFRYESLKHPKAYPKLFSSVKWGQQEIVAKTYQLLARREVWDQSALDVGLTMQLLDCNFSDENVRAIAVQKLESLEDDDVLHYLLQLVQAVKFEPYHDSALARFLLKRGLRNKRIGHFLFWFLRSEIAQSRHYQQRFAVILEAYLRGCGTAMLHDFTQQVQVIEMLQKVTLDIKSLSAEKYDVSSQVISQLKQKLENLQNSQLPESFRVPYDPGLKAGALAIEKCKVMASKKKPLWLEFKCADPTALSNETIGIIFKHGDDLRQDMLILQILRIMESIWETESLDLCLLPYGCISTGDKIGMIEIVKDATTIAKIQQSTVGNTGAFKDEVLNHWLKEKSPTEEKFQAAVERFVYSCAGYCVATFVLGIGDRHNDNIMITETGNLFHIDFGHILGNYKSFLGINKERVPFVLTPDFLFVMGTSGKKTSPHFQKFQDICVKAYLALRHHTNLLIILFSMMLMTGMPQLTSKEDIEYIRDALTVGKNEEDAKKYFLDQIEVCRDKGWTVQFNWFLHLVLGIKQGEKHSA
Sequence of PIK3Cβ_h (P42338 whole entry): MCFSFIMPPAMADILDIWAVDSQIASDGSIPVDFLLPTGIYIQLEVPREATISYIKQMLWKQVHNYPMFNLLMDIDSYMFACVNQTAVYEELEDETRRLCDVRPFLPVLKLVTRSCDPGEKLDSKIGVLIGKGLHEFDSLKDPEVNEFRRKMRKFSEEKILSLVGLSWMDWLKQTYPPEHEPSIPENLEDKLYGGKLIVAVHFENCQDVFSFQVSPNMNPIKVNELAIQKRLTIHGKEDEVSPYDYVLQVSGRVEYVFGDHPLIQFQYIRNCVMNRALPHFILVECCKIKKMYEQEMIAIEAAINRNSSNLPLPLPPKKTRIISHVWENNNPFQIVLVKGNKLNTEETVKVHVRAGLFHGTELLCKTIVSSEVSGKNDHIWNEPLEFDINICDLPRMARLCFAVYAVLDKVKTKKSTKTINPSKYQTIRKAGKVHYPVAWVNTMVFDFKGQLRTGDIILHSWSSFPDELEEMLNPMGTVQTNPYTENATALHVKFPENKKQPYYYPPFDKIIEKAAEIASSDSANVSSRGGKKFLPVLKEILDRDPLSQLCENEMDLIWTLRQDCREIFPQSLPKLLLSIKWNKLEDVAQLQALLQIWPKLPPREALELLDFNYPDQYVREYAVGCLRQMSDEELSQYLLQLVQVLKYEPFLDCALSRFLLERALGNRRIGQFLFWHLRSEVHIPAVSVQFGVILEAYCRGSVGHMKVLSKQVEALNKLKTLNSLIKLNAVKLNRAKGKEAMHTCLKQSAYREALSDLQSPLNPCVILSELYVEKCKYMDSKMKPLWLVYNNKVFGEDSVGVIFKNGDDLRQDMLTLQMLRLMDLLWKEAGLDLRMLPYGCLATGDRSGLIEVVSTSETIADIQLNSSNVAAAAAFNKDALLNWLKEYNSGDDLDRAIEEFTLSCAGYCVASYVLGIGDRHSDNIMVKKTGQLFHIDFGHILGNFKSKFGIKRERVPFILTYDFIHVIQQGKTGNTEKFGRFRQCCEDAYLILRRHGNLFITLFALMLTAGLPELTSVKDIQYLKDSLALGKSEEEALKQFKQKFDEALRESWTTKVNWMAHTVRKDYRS
Sequence of PIK3Cδ_h (O00329 whole entry): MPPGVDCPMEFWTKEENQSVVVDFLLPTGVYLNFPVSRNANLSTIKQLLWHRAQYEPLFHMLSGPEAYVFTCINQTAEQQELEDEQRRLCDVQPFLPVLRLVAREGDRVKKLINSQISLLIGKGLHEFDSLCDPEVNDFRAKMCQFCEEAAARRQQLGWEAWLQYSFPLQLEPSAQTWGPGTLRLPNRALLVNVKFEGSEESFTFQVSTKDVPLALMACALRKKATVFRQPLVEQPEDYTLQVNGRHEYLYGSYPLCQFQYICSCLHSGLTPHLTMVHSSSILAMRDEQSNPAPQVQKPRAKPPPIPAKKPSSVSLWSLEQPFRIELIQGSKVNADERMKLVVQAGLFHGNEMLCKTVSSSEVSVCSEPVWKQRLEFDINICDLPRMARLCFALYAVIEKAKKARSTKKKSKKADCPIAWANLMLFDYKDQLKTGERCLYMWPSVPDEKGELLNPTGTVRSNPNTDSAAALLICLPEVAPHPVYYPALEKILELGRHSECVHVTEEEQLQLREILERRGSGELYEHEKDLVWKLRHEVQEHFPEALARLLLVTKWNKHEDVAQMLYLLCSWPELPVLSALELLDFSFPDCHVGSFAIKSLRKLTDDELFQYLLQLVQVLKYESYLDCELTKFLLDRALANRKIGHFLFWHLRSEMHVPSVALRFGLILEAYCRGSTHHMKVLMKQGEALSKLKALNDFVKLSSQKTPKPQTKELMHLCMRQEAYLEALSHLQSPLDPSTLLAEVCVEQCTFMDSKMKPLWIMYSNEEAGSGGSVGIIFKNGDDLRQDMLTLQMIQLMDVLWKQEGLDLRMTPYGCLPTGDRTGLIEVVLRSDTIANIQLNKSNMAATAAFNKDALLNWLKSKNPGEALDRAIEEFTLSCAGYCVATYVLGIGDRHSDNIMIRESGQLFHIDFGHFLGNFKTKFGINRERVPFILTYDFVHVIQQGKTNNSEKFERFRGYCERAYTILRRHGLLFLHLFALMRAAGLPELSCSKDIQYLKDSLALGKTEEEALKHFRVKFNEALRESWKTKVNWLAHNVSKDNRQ
Sequence of PIK3Cα_h (P42336 whole entry): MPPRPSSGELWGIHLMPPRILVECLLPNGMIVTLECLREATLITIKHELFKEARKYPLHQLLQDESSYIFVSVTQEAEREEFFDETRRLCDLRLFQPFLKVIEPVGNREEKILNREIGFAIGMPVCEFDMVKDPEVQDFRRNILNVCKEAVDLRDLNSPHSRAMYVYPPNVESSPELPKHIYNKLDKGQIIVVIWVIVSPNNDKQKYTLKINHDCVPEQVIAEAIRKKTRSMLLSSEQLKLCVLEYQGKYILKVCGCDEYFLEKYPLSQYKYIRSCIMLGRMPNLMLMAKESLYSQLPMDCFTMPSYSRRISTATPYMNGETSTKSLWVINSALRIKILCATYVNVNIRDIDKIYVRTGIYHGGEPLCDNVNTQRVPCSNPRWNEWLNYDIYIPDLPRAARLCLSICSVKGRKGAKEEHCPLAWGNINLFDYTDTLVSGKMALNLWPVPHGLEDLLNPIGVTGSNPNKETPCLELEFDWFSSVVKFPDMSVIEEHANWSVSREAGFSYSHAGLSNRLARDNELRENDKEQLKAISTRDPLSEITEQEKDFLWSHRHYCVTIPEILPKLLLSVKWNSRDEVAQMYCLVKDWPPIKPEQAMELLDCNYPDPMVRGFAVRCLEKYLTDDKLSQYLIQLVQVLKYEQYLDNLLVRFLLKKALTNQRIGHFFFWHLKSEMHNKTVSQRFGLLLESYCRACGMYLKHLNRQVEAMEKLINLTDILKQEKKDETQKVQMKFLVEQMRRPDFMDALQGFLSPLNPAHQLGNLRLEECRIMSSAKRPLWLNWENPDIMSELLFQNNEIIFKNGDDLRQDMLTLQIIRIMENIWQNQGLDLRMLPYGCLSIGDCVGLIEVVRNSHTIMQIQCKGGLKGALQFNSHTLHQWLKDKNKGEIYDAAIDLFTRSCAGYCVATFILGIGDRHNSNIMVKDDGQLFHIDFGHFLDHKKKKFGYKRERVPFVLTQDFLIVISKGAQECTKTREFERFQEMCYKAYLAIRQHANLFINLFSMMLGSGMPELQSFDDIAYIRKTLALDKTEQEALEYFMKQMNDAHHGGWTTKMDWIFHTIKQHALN

| Compound | Kd (PIK3Cα_h) [µM] | Kd (PIK3Cβ_h) [µM] | Kd (PIK3Cδ_h) [µM] | Kd (PIK3Cγ_h) [µM] | Kd (MTOR_h) [µM] | IC50 ([1]; Homo sapiens, PC-3, 1 h) [µM] | IC50 ([2]; Homo sapiens, PC-3, 1 h) [µM] | IC50 [1] [µM] | IC50 [2] [µM] |
| --- | --- | --- | --- | --- | --- | --- | --- | --- | --- |
| Cc1c(Cc2c(CO)nc3c(N)cc(N4CCOCC4)nn23)cccc1C(F)(F)F [Compound 14b] | > 10 | 0.0015 | 0.253 | > 8.13 | > 30.2 | – | – | 0.06 | 0.038 |
| Cc1nc2c(N)cc(N3CCOCC3)nn2c1Nc1cccc(C(F)(F)F)c1CNC(C)CO (centres unmarked) [Compound 55] | 1.12 | 0.0009 | 0.009 | 12.6 | > 30.2 | 0.01 | 0.007 | – | – |
| Cc1nc2c(-c3ncc[nH]3)cc(N3CCOCC3)nn2c1Nc1cccc(C(F)(F)F)c1C [Compound 34] | 2.24 | 0.003 | 0.081 | 6.92 | > 10 | ~0.056 | ~0.032 | – | – |
| Cc1c(Cc2c(CF)nc3c(C(N)=O)cc(N4CCOCC4)nn23)cccc1C(F)(F)F [Compound 16] | > 10 | 0.01 | > 3.31 | > 3.31 | > 30.2 | 0.123 | 0.155 | – | – |
| Cc1c(Cc2c(COC(=O)C(N)C(C)C)nc3c(N)cc(N4CCOCC4)nn23)cccc1C(F)(F)F (centres unmarked) [Compound 82] | 32.4 | 0.0013 | 0.263 | > 30.2 | 25.1 | 0.38 | ~0.123 | – | – |
| Cc1nc2c(N)cc(N3CCOCC3)nn2c1Nc1cccc(C(F)(F)F)c1CN1CCN(C)CC1 [Compound 58] | 4.27 | 0.0004 | 0.02 | 12.3 | 21.4 | 0.021 | 0.017 | – | – |
| Cc1nc2c(N)cc(N3CCOCC3)nn2c1Nc1ccccc1CN1CCOCC1 [Compound 69] | 5.37 | 0.015 | 0.056 | 24.5 | 1.51 | 0.186 | 0.151 | – | – |
| Cc1cccc(Nc2c(C)nc3c(N)cc(N4CCOCC4)nn23)c1C [Compound 39] | 2.57 | 0.0011 | 0.031 | 8.51 | 4.9 | 0.034 | ~0.043 | – | – |
| Cc1nc2c(-c3cnc[nH]3)cc(N3CCOCC3)nn2c1Cc1cccc(C(F)(F)F)c1C [Compound 5] | 0.617 | 0.006 | 0.316 | 10.2 | 2.4 | ~0.059 | ~0.048 | – | – |
| Cc1c(Cc2c(CO)nc3c(N)cc(N4CCOCC4)nn23)cccc1C(F)(F)F [Compound 14c] | > 10 | 0.0012 | 0.194 | > 30.2 | 5.25 | 0.05 | ~0.049 | – | – |
| Cc1c(Cc2c(CO)nc3c(N)cc(N4CCOC(C)C4)nn23)cccc1C(F)(F)F (centres unmarked) [Compound 26] | > 30.2 | 0.331 | 13.8 | 11.7 | 8.51 | > 0.513 | ~0.309 | – | – |
| Cc1c(Cc2c(CNCCO)nc3c(-c4ncc[nH]4)cc(N4CCOCC4)nn23)cccc1C(F)(F)F [Compound 4] | 0.933 | 0.0033 | 0.074 | 1.15 | > 3.31 | ~0.135 | ~0.12 | – | – |
| Cc1c(Cc2c(C(O)CN)nc3c(N)cc(N4CCOCC4)nn23)cccc1C(F)(F)F (centres unmarked) [Compound 91] | 8.91 | 0.0011 | 0.148 | 8.13 | 0.776 | > 0.513 | > 0.513 | – | – |

More lines, now with the values ahead:

| Kd (PIK3Cα_h) [µM] | Kd (PIK3Cβ_h) [µM] | Kd (PIK3Cδ_h) [µM] | Kd (PIK3Cγ_h) [µM] | Kd (MTOR_h) [µM] | IC50 ([1]; Homo sapiens, PC-3, 1 h) [µM] | IC50 ([2]; Homo sapiens, PC-3, 1 h) [µM] | IC50 [1] [µM] | IC50 [2] [µM] | Compound |
| --- | --- | --- | --- | --- | --- | --- | --- | --- | --- |
| 0.339 | 0.0007 | 0.009 | 0.891 | 6.31 | 0.034 | 0.026 | – | – | Cc1nc2c(-c3c[nH]cn3)cc(N3CCOCC3)nn2c1Nc1cccc(C(F)(F)F)c1CN1CCN(C)CC1 [Compound 57] |
| 9.33 | 0.0015 | 0.105 | 14.8 | 5.37 | 0.034 | ~0.011 | – | – | Cc1nc2c(N)cc(N3CCOCC3)nn2c1Nc1cccc(F)c1C [Compound 44] |
| 12.8 | 0.009 | 0.098 | 2.9 | 22.2 | 0.136 | 0.082 | – | – | Cc1nc2c(N)cc(N3CCOCC3)nn2c1Cc1cccc2c1CNCC2 [Compound 109] |
| 1.18 | 0.0026 | 0.129 | 4.57 | 2.19 | 0.059 | ~0.042 | – | – | Cc1c(Cc2c(C(C)O)nc3c(-c4c[nH]cn4)cc(N4CCOCC4)nn23)cccc1C(F)(F)F (centres unmarked) [Compound 30] |
| 17 | 0.0033 | 0.427 | 15.8 | 14.1 | 0.081 | ~0.05 | – | – | Cc1c(Cc2c(CF)nc3c(N)cc(N4CCOCC4)nn23)cccc1C(F)(F)F [Compound 17] |
| > 30.2 | 0.002 | 0.059 | > 30.2 | > 30.2 | 0.033 | 0.011 | – | – | CC(=O)NCc1nc2c(-c3ncc[nH]3)cc(N3CCOCC3)nn2c1Cc1cccc(C(F)(F)F)c1C [Compound 18] |
| 0.575 | 0.0022 | 0.214 | 0.759 | 3.24 | 0.011 | 0.02 | – | – | Cc1c(Nc2c(CO)nc3c(C(N)=O)cc(N4CCOCC4)nn23)cccc1C(F)(F)F [Compound 37] |
| > 30.2 | 0.141 | 1.51 | > 30.2 | > 30.2 | > 0.513 | > 0.513 | – | – | CC(CO)NCc1c(F)cccc1Cc1c(CO)nc2c(N)cc(N3CCOCC3)nn12 (centres unmarked) [Compound 102] |
| 17 | 0.006 | 0.075 | > 30.2 | > 30.2 | 0.246 | 0.107 | – | – | Cc1nc2c(N)cc(N3CCOCC3)nn2c1Nc1cccc(F)c1CNC(C)CO (centres unmarked) [Compound 71] |
| > 30.2 | 0.0012 | 0.225 | > 10 | 6.76 | – | – | ~0.046 | 0.038 | Cc1c(Cc2c(CO)nc3c(N)cc(N4CCOCC4)nn23)cccc1C(F)(F)F [Compound 14a] |
| 1.58 | 0.009 | 0.24 | 0.617 | 0.178 | 0.148 | 0.05 | – | – | Cc1c(Cc2c(CO)nc3c(-c4ccn[nH]4)cc(N4CCOCC4)nn23)cccc1C(F)(F)F [Compound 21] |
| 2.09 | 0.0025 | 0.083 | 5.5 | 21.4 | ~0.407 | 0.38 | – | – | Cc1nc2c(C(=O)O)cc(N3CCOC(C)C3)nn2c1Cc1cccc(C(F)(F)F)c1C (centres unmarked) [Compound 28] |
| 2.75 | 0.0017 | 0.034 | 6.17 | > 30.2 | 0.098 | 0.055 | – | – | Cc1nc2c(N)cc(N3CCOCC3)nn2c1Nc1cccc(C(F)(F)F)c1CN1CC(S(C)(=O)=O)C1 [Compound 48] |
